Experimental data taken from patent US20250304560A1, “MODULATORS OF NLRP3 INFLAMMASOME AND RELATED PRODUCTS AND METHODS” (Neumora Therapeutics, Inc., priority 2022, published 2025).
Where two headings read alike, the source gives them in different places. Each block holds one compound with its values, some of them ahead of it.

Assays:
NLRP3 inflammasome = NLRP3 inflammasome (Homo sapiens, UniProt Q96P20); assay: NLRP3 inflammasome activation in THP1 macrophages, IL-1β AlphaLISA
IL-6 = IL-6 AlphaLISA in LPS-primed THP1 macrophages; details: Homo sapiens
[1] = IL-1β Activity (nM), THP1 macrophages, PMA, LPS priming, nigericin 6.7 uM activation
[2] = THP-1, read-out: IL-6 Activity (μM), THP1 macrophages, PMA, LPS priming, nigericin 6.7 uM
[3] = THP-1, read-out: IL-6 Activity (μM)

Sequence of NLRP3 inflammasome (Q96P20 whole entry): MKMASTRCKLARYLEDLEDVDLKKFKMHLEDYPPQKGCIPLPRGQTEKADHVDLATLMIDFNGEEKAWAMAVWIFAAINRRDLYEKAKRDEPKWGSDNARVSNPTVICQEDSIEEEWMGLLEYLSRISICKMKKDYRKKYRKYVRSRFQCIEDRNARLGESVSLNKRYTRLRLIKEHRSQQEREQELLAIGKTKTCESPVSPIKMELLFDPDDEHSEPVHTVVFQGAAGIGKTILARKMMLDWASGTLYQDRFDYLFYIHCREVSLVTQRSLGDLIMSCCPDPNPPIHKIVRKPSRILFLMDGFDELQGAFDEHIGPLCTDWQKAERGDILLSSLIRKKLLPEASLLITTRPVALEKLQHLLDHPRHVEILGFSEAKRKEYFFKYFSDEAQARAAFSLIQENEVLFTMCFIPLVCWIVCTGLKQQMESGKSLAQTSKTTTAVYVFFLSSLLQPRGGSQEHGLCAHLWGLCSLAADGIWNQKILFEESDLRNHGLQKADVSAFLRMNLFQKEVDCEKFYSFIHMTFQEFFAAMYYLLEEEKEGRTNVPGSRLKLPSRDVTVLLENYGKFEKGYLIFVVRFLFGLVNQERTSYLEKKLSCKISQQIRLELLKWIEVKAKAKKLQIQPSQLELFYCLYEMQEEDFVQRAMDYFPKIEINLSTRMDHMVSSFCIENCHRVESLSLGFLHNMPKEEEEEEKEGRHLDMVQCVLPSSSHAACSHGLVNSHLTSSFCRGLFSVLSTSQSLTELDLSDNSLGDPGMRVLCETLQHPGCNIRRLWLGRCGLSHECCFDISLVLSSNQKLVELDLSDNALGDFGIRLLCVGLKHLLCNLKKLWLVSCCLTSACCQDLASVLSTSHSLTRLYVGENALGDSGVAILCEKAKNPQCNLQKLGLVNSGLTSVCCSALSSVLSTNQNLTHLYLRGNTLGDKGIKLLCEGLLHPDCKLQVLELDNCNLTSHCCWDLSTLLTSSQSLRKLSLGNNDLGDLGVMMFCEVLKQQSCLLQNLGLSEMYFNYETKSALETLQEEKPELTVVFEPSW

Structure (SMILES): Cc1cc(N[C@@H]2CCCN(C(C)C)C2)nnc1-c1ccc(F)cc1O [compound 59]
IC50 (NLRP3 inflammasome; [1]): < 1 nM | IC50 (IL-6; [2]): 5 to 10 µM

Structure (SMILES): Cc1cc(-c2ccc(F)cc2O)nnc1O[C@@H]1CCCN(C)C1 [compound 35]
IC50 (NLRP3 inflammasome): 10 to 100 nM | IC50 (IL-6; [3]): 5 to 10 µM

Structure (SMILES): Cc1cc(NC[C@H]2CCC(F)(F)C2)nnc1-c1ccccc1O [compound 113]
IC50 (NLRP3 inflammasome): > 1000 nM | IC50 (IL-6; [3]): > 10 µM

Structure (SMILES): CCc1ccc(-c2ccc(N[C@@H]3CCCN(C)C3)nn2)c(O)c1 [compound 14]
IC50 (NLRP3 inflammasome; [1]): 10 to 100 nM | IC50 (IL-6; [2]): > 10 µM

Structure (SMILES): Cc1cc(-c2c(C)cc(F)cc2O)nnc1N[C@@H]1CCCN(C)C1 [compound 84]
IC50 (NLRP3 inflammasome; [1]): 1 to 10 nM | IC50 (IL-6; [2]): > 10 µM

Structure (SMILES): Cc1cc(-c2ccccc2O)nnc1N[C@@H]1CCCN(C)C1 [compound 8]
IC50 (NLRP3 inflammasome; [1]): 1 to 10 nM | IC50 (IL-6; [2]): > 10 µM

Structure (SMILES): Cc1cc(-c2cccc(C)c2O)nnc1N[C@@H]1CCCN(C)C1 [compound 81]
IC50 (NLRP3 inflammasome; [1]): 1 to 10 nM | IC50 (IL-6; [2]): > 10 µM

Structure (SMILES): Cc1cc(N[C@H]2CN(C)CC[C@H]2F)nnc1-c1ccc(F)cc1O [compound 49]
IC50 (NLRP3 inflammasome; [1]): 10 to 100 nM | IC50 (IL-6; [2]): > 10 µM

Structure (SMILES): Cc1cc(-c2ccc(F)cc2O)nnc1N[C@@H]1CCCN(C)C1 [compound 77]
IC50 (NLRP3 inflammasome; [1]): 10 to 100 nM | IC50 (IL-6; [2]): > 10 µM

Structure (SMILES): Cc1cc(N[C@@H]2CCCN(C(C)C)C2)nnc1-c1ccccc1O [compound 57]
IC50 (NLRP3 inflammasome; [1]): < 1 nM | IC50 (IL-6; [2]): 5 to 10 µM

Structure (SMILES): Cc1cc(N[C@@H]2CCN(C)C2)nnc1-c1ccc(C(F)(F)F)cc1O [compound 96]
IC50 (NLRP3 inflammasome; [1]): 1 to 10 nM | IC50 (IL-6; [2]): > 10 µM

Structure (SMILES): Cc1ccc(O)c(-c2ccc(N[C@@H]3CCCN(C)C3)nn2)c1 [compound 4]
IC50 (NLRP3 inflammasome; [1]): 100 to 500 nM | IC50 (IL-6; [2]): > 10 µM

Structure (SMILES): Cc1cc(N[C@H]2CN(C)CC[C@@H]2F)nnc1-c1ccc(F)cc1O [compound 48]
IC50 (NLRP3 inflammasome; [1]): 10 to 100 nM | IC50 (IL-6; [2]): > 10 µM

Structure (SMILES): Cc1cc(N[C@H]2CN(C)CC(F)(F)C2)nnc1-c1ccc(F)cc1O [compound 45]
IC50 (NLRP3 inflammasome; [1]): 100 to 500 nM | IC50 (IL-6; [2]): > 10 µM

Second part, the compound after the results:

IC50 (NLRP3 inflammasome; [1]): > 1000 nM | IC50 (IL-6; [2]): 5 to 10 µM
Structure (SMILES): CN1CCC[C@@H](N(C)c2ccc(-c3ccc(F)cc3O)nn2)C1 [compound 20]

IC50 (NLRP3 inflammasome): < 1 nM | IC50 (IL-6; [3]): < 1 µM
Structure (SMILES): Cc1cc(N(C)[C@@H]2CCCN(C)C2)nnc1-c1ccc(C2CC2)cc1O [compound 28]

IC50 (NLRP3 inflammasome): > 1000 nM | IC50 (IL-6; [3]): > 10 µM
Structure (SMILES): Cc1cc(O[C@@H]2CCCN(C)C2)nnc1-c1ccc(C(F)(F)F)cc1O [compound 73, (R)-2-(4-methyl-6-((1-methylpiperidin-3-yl)oxy)pyridazin-3-yl)-5-(trifluoromethyl) phenol]

IC50 (NLRP3 inflammasome; [1]): > 1000 nM | IC50 (IL-6; [2]): 5 to 10 µM
Structure (SMILES): Cc1cccc(-c2ccc(N(C)[C@@H]3CCCN(C)C3)nn2)c1O [compound 18]

IC50 (NLRP3 inflammasome): 10 to 100 nM | IC50 (IL-6; [3]): > 10 µM
Structure (SMILES): Cc1cc(C[C@@H]2CCCN(C)C2)nnc1-c1ccccc1O [compound 70]

IC50 (NLRP3 inflammasome; [1]): 10 to 100 nM | IC50 (IL-6; [2]): > 10 µM
Structure (SMILES): Cc1ccc(O)c(-c2nnc(N[C@@H]3CCCN(C)C3)cc2C)c1 [compound 68]

IC50 (NLRP3 inflammasome): 100 to 500 nM | IC50 (IL-6; [3]): > 10 µM
Structure (SMILES): Cc1cc(O[C@@H]2CCCN(C)C2)nnc1-c1ccc(C#N)cc1O [compound 100]
